pIC50: −log10 of the molar value. Active and inactive are the calls of the source. The calls are words filed in the database; no cut-off is given here.
Key:
Rattus norvegicus [1] = assay: Antiinflammatory activity against male Sprague-Dawley rat pressure ulcer model assessed as appearance of orderly arranged cells at 0.625 to 2.5% administered as ointment by Masson staining based analysis; type: functional, organism-based
[2] = Acute toxicity in female Kunming mouse assessed as effect on pathological changes in lung at 500 to 4000 mg/kg measured after 14 days by H and E staining based analysis; type: organism-based; details: in vivo, 336 h, dose 500-4000 mg/kg, time 14 day
RAW264.7 [3] = assay: Cytotoxicity against mouse RAW264.7 cells at 10 uM measured after 24 hrs by CCK-8 method; type: functional, cell-based
Rattus norvegicus [4] = assay: Antiinflammatory activity against male Sprague-Dawley rat pressure ulcer model assessed as decrease in inflammatory cells in dermis at 0.625 to 2.5% administered as ointment by H and E staining based analysis; type: functional, organism-based
Rattus norvegicus [5] = assay: Antiinflammatory activity against male Sprague-Dawley rat pressure ulcer model assessed as increase in number of fibroblasts at 0.625 to 2.5% administered as ointment by Masson staining based analysis; type: functional, organism-based
Mus musculus = assay: Antiallodynic activity in female C57/BL mouse assessed as increase in response latency at 60 mg/kg, ip measured after 3 to 7 days by hot plate method; type: functional, organism-based; details: time 3-7 day
[6] = AUC (0 to t) in Sprague-Dawley rat at 10 mg/kg, po; type: ADME, organism-based; details: in vivo
[7] = Acute toxicity in male Kunming mouse assessed as effect on pathological changes in lung at 500 to 4000 mg/kg measured after 14 days by H and E staining based analysis; type: organism-based; details: in vivo, 336 h, dose 500-4000 mg/kg, time 14 day
[8] = Clearance in Sprague-Dawley rat at 5 mg/kg, iv; type: ADME, organism-based; details: in vivo
RAW264.7 [9] = assay: Cytotoxicity against mouse RAW264.7 cells measured after 24 hrs by CCK-8 method; type: functional
[10] = Acute toxicity in male Kunming mouse assessed as effect on pathological changes in liver at 500 to 4000 mg/kg measured after 14 days by H and E staining based analysis; type: organism-based; details: in vivo, 336 h, dose 500-4000 mg/kg, time 14 day
[11] = target: 3',5'-cyclic-AMP phosphodiesterase 4D (Homo sapiens, UniProt Q08499); assay: Inhibition of PDE4D (unknown origin) at 1 uM relative to control
[12] = Acute toxicity in female Kunming mouse assessed as effect on pathological changes in liver at 500 to 4000 mg/kg measured after 14 days by H and E staining based analysis; type: organism-based; details: in vivo, 336 h, dose 500-4000 mg/kg, time 14 day
[13] = Half life in Sprague-Dawley rat at 5 mg/kg, iv; type: ADME, organism-based; details: in vivo
Enterococcus faecium = assay: Antibacterial activity against Enterococcus faecium BNCC358275 assessed as reduction in bacterial colonies growth at 512 ug/ml measured after 24 hrs by agar plate method; type: functional, organism-based; details: dose 512.0 µg/ml
Cytochrome P450 3A4 = Cytochrome P450 3A4 (Homo sapiens, UniProt P08684); assay: Inhibition of human CYP3A4; type: ADME
Rattus norvegicus [14] = assay: Antiinflammatory activity against male Sprague-Dawley rat pressure ulcer model assessed as appearance of thinner epidermal layer at 0.625 to 2.5% administered as ointment by Masson staining based analysis; type: functional, organism-based
Rattus norvegicus [15] = assay: Antiinflammatory activity against male Sprague-Dawley rat pressure ulcer model assessed as reduction in IL6 mRNA expression in skin at 1.25% administered as ointment by qRT-PCR analysis; type: functional, organism-based
[16] = target: cAMP and cAMP-inhibited cGMP 3',5'-cyclic phosphodiesterase 10A (Homo sapiens, UniProt Q9Y233); assay: Inhibition of PDE10A (unknown origin)
Cytochrome P450 2C9 = Cytochrome P450 2C9 (Homo sapiens, UniProt P11712); assay: Inhibition of human CYP2C9; type: ADME
[17] = Acute toxicity in female Kunming mouse assessed as effect on pathological changes in spleen at 500 to 4000 mg/kg measured after 14 days by H and E staining based analysis; type: organism-based; details: in vivo, 336 h, dose 500-4000 mg/kg, time 14 day
[18] = Acute toxicity in male Kunming mouse assessed as effect on pathological changes in kidney at 500 to 4000 mg/kg measured after 14 days by H and E staining based analysis; type: organism-based; details: in vivo, 336 h, dose 500-4000 mg/kg, time 14 day
[19] = AUC (0 to infinity) in Sprague-Dawley rat at 5 mg/kg, iv; type: ADME, organism-based; details: in vivo
[20] = Acute toxicity in male Kunming mouse assessed as effect on weight at 500 to 4000 mg/kg measured after 14 days; type: organism-based; details: in vivo, 336 h, dose 500-4000 mg/kg, time 14 day
Enterococcus faecalis = assay: Antibacterial activity against Enterococcus faecalis BNCC296862 assessed as reduction in bacterial colonies growth at 512 ug/ml measured after 24 hrs by agar plate method; type: functional, organism-based; details: dose 512.0 µg/ml
[21] = Toxicity in male Sprague-Dawley rat assessed as pathological changes in kidney by H and E staining based analysis; type: tissue-based; details: in vivo
Rattus norvegicus [22] = assay: Antiinflammatory activity against male Sprague-Dawley rat pressure ulcer model assessed as reduction in TNF-alpha mRNA expression in skin at 1.25% administered as ointment by qRT-PCR analysis; type: functional, organism-based
[23] = Toxicity in male Sprague-Dawley rat assessed as pathological changes in liver by H and E staining based analysis; type: tissue-based; details: in vivo
[24] = target: Voltage-gated inwardly rectifying potassium channel KCNH2 (Homo sapiens, UniProt Q12809); assay: Inhibition of human ERG stably expressed in HEK293 cells by manual membrane clamp technique; type: toxicity, cell-based
Rattus norvegicus [25] = assay: Antiinflammatory activity against male Sprague-Dawley rat pressure ulcer model assessed as wound healing rate at 2.5% administration as ointment measured after 7 days (reference value: 70%); type: functional; details: time 7 day
RAW264.7 [26] = assay: Antiinflammatory activity against mouse RAW264.7 cells assessed as increase in cAMP expression at 5 to 20 uM by […] analysis; type: functional, cell-based; details: dose 5-20 µM
[27] = target: High affinity 3',5'-cyclic-AMP phosphodiesterase 7A (Homo sapiens, UniProt Q13946); assay: Inhibition of PDE7A (unknown origin)
Rattus norvegicus [28] = assay: Antiinflammatory activity against male Sprague-Dawley rat pressure ulcer model assessed as appearance of thinner epidermal layer at 0.625 to 2.5% administered as ointment by H and E staining based analysis; type: functional, organism-based
[29] = target: Cone cGMP-specific 3',5'-cyclic phosphodiesterase subunit alpha' (Homo sapiens, UniProt P51160); assay: Inhibition of PDE6C (unknown origin)
[30] = target: High affinity cGMP-specific 3',5'-cyclic phosphodiesterase 9A (Homo sapiens, UniProt O76083); assay: Inhibition of PDE9A (unknown origin)
Rattus norvegicus [31] = assay: Antiinflammatory activity against male Sprague-Dawley rat pressure ulcer model assessed as increase in number of fibroblasts at 0.625 to 2.5% administered as ointment by H and E staining based analysis; type: functional, organism-based
RAW264.7 [32] = assay: Antiinflammatory activity against mouse RAW264.7 cells assessed as inhibition of LPS-induced TNF-alpha release preincubated for 2 hrs followed by LPS stimulation and measured after 4 hrs by RT-PCR analysis; type: functional, cell-based
[33] = target: High affinity cAMP-specific and IBMX-insensitive 3',5'-cyclic phosphodiesterase 8A (Homo sapiens, UniProt O60658); assay: Inhibition of PDE8A (unknown origin)
[34] = target: cGMP-specific 3',5'-cyclic phosphodiesterase (Homo sapiens, UniProt O76074); assay: Inhibition of PDE5A (unknown origin)
Cytochrome P450 2C19 = Cytochrome P450 2C19 (Homo sapiens, UniProt P33261); assay: Inhibition of human CYP2C19; type: ADME
HUVEC = assay: Inhibition of cell migration in HUVEC cells; type: functional, cell-based; details: Homo sapiens, dose 5-20 µM

High affinity cGMP-specific 3',5'-cyclic phosphodiesterase 9A, sequence (O76083 whole entry): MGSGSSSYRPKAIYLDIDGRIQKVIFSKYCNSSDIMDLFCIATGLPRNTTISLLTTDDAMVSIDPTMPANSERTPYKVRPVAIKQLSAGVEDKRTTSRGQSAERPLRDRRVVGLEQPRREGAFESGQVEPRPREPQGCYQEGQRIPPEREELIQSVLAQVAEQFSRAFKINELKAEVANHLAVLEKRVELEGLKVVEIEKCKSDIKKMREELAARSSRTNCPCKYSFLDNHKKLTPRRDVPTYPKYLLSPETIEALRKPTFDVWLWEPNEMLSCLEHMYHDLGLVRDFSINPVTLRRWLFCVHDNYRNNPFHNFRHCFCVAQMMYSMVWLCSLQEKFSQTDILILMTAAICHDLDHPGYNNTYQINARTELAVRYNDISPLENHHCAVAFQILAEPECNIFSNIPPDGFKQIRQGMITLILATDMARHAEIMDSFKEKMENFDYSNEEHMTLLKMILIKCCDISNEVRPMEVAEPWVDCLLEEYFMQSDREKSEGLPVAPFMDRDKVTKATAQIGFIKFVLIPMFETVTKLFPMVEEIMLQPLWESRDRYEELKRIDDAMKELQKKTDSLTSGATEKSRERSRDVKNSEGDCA
Cytochrome P450 3A4, sequence (P08684 whole entry): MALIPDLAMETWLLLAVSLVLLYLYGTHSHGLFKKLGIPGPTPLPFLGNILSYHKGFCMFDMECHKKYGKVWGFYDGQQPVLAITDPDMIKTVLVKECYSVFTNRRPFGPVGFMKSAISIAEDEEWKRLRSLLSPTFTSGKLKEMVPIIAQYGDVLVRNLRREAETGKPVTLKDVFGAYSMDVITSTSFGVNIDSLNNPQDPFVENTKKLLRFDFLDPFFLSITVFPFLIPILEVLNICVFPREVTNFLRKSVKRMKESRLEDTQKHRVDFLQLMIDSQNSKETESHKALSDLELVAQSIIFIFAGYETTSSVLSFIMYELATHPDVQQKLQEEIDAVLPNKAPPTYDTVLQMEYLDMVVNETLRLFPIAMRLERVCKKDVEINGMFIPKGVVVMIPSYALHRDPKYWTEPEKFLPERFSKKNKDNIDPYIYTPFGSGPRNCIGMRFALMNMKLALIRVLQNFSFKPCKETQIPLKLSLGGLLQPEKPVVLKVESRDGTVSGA
High affinity 3',5'-cyclic-AMP phosphodiesterase 7A, sequence (Q13946 whole entry): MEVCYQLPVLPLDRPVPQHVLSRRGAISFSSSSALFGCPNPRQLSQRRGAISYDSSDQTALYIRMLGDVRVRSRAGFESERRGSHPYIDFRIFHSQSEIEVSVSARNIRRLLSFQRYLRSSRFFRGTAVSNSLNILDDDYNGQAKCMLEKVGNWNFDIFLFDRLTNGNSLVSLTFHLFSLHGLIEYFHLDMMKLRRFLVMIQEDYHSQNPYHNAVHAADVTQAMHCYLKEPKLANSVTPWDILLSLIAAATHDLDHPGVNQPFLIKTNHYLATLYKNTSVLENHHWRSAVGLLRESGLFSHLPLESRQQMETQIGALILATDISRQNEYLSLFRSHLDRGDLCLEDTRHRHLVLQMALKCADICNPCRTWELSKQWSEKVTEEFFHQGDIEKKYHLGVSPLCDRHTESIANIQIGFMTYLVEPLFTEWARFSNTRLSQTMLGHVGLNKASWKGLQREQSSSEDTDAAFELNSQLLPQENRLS
cAMP and cAMP-inhibited cGMP 3',5'-cyclic phosphodiesterase 10A, sequence (Q9Y233 whole entry): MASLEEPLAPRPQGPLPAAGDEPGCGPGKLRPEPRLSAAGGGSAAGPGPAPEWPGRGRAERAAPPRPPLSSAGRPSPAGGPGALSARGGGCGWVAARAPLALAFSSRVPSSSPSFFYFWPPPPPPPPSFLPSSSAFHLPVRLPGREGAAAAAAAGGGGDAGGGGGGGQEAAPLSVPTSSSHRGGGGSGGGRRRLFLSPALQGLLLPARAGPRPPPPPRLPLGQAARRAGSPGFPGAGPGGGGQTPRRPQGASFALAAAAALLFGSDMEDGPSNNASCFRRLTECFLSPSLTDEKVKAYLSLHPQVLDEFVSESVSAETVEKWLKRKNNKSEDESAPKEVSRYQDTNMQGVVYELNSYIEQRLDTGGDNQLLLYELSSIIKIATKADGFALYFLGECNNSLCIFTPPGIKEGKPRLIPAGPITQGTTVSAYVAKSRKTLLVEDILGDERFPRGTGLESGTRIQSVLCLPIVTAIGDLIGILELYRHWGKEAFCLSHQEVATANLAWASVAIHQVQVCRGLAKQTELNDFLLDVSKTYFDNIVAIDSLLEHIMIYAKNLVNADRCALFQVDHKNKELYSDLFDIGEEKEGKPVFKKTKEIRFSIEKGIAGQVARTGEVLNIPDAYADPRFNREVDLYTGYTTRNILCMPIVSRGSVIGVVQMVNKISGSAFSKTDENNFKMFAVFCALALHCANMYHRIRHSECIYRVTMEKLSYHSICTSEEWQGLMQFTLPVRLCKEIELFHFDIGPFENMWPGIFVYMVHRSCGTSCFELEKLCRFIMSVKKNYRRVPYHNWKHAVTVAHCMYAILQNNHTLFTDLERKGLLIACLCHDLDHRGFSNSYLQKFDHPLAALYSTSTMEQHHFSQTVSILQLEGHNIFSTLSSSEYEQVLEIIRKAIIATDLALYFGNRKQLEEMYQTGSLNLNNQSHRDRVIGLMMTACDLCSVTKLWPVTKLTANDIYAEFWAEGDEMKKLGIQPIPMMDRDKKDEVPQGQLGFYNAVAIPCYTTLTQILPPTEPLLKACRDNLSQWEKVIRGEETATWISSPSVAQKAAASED
3',5'-cyclic-AMP phosphodiesterase 4D, sequence (Q08499 whole entry): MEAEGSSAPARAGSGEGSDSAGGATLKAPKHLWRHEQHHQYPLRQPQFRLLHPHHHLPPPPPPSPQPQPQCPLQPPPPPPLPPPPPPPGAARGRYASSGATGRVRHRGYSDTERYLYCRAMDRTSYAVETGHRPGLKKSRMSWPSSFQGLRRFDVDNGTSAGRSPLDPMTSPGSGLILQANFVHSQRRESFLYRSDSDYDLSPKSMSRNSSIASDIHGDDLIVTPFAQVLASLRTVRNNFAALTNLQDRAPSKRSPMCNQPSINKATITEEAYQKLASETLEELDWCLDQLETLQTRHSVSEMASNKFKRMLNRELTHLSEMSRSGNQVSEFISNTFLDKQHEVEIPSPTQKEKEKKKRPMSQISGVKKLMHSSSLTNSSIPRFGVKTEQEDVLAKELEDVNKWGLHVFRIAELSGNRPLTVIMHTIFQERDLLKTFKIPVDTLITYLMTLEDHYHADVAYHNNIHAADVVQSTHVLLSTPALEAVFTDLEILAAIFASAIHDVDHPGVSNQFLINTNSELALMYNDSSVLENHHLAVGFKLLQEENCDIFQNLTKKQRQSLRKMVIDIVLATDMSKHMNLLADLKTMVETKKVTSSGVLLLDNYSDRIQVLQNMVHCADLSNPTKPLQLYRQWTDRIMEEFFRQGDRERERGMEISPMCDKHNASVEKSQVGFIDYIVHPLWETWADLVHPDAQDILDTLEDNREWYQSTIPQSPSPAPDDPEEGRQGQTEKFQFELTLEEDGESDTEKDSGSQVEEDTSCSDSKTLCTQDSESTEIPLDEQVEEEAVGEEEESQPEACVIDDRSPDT
Cytochrome P450 2C9, sequence (P11712 whole entry): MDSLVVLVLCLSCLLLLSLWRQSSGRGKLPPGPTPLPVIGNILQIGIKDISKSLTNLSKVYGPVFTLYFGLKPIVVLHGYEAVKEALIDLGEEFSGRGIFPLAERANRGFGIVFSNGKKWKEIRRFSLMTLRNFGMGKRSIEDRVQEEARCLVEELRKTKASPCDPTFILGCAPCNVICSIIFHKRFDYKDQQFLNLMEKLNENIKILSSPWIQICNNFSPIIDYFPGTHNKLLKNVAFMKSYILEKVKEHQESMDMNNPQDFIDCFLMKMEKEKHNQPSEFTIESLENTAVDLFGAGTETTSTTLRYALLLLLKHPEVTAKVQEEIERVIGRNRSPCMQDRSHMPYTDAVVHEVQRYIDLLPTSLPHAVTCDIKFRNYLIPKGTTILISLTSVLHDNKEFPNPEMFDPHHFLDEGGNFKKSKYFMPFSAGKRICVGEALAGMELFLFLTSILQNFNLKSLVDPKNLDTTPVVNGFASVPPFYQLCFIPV
Cone cGMP-specific 3',5'-cyclic phosphodiesterase subunit alpha', sequence (P51160 whole entry): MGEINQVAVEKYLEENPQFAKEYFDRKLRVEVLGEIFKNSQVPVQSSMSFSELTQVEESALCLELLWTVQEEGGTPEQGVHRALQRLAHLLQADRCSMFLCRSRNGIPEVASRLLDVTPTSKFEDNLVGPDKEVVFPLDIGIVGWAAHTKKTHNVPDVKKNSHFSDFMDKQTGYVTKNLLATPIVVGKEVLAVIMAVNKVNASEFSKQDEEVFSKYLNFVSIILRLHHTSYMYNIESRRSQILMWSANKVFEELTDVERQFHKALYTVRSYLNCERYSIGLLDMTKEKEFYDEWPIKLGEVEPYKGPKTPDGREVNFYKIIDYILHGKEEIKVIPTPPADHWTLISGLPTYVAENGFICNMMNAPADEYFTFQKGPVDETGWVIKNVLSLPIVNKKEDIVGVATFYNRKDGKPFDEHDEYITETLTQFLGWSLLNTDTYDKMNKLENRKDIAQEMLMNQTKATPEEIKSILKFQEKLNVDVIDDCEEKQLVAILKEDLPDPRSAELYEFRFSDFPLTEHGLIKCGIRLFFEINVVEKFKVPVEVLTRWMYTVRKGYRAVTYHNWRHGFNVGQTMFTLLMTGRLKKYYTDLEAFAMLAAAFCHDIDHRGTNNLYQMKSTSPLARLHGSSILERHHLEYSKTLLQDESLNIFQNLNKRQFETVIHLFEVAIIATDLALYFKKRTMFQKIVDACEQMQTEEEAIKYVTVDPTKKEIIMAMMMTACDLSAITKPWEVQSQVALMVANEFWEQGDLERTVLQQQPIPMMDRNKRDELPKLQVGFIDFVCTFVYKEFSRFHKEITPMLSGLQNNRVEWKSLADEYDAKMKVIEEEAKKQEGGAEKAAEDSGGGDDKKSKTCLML

Structure (SMILES): Cn1c(=O)c2c(ncn2CCC(=O)NNC(=O)c2cc3nccc(-c4ccc(OC(F)F)c(OCC5CC5)c4)n3n2)n(C)c1=O
- Activity (Rattus norvegicus [1]): Active
- Activity [2]: Non-toxic
- Activity (RAW264.7 [3]): inactive
- Activity (Rattus norvegicus [4]): Active
- Activity (Rattus norvegicus [5]): Active
- Activity (Mus musculus): Active
- AUC(0-t) [6]: 25.6 ng·h/mL
- Activity [7]: Non-toxic
- clearance [8]: 358 mL/min/kg
- CC50 (RAW264.7 [9]): > 90 µM
- Activity [10]: Non-toxic
- inhibition [11]: 95.8%
- Activity [12]: Non-toxic
- half-life [13]: 16.8 min
- Activity (Enterococcus faecium): Active
- pIC50 (Cytochrome P450 3A4): < 4.30
- Activity (Rattus norvegicus [14]): Active
- Activity (Rattus norvegicus [15]): Active
- pIC50 [16]: 5.95
- pIC50 (Cytochrome P450 2C9): 4.61
- Activity [17]: Non-toxic
- Activity [18]: Non-toxic
- AUC(0-inf) [19]: 236 ng·h/mL
- Activity [20]: Non-toxic
- Activity (Enterococcus faecalis): Active
- Activity [21]: Non-toxic
- Activity (Rattus norvegicus [22]): Active
- Activity [23]: Non-toxic
- pIC50 [24]: < 5.00
- Activity (Rattus norvegicus [25]): 81%
- Activity (RAW264.7 [26]): Active
- pIC50 [27]: 4.82
- Activity (Rattus norvegicus [28]): Active
- pIC50 [29]: < 4.30
- pIC50 [30]: < 4.30
- Activity (Rattus norvegicus [31]): Active
- pIC50 (RAW264.7 [32]): 4.88
- pIC50 [33]: 5.77
- pIC50 [34]: < 4.30
- pIC50 (Cytochrome P450 2C19): < 4.30
- inhibition (HUVEC): Dose-dependent-effect
